For 1 molecule, IC50 results are on record in patent US20100173958A1, “COMPOUNDS FOR THE INHIBITION OF DGAT1 ACTIVITY” (priority 2006, published 2010).

Each structure is given as a SMILES string.

In this assay the target is T1, human DGAT1 (Homo sapiens, UniProt O75907).
T1 construct: made in house; host or cells: Sf9 insect cells (recombinant baculovirus); membrane fraction used
T1 sequence (O75907 1-488): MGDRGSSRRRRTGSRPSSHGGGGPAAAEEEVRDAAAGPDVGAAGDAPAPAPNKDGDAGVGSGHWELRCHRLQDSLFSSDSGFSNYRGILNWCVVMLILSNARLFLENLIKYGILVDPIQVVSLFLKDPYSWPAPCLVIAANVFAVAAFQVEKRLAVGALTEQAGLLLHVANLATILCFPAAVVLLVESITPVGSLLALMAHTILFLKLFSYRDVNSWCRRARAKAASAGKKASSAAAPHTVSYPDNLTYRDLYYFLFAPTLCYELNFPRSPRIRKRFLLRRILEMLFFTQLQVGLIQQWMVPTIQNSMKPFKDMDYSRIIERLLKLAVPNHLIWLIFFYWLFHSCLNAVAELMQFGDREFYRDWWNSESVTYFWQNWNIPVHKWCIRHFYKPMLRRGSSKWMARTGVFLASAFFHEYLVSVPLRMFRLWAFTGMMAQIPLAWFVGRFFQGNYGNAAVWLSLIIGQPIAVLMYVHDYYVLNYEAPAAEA
As to the kind of experiment: Human Enzyme Assay (DGAT1 inhibition). It is filed as biochemical. The settings on record: human DGAT1 expressed in insect cell (sf9) membranes; 14C oleoyl coenzyme A, 30 minutes at room temperature. On the procedure: The in vitro assay to identify DGAT1 inhibitors uses human DGAT1 expressed in insect cell membranes as the enzyme source (Proc. Natl. Acad. Sci. 1998, 95, 13018-13023). Briefly, sf9 cells were infected with recombinant baculovirus containing human DGAT1 coding sequences and harvested after 48 h. Cells were lysed by sonication and membranes isolated by centrifuging at 28000 rpm for 1 h at 4° C. on a 41% sucrose gradient. The membrane fraction at the interphase was collected, washed, and stored in liquid nitrogen.
DGAT1 activity was assayed by a modification of the method described by Coleman (Methods in Enzymology 1992, 209, 98-102). Compound at 1-10 μM was incubated with 0.4 μg membrane protein, 5 mM MgCl2, and 100 μM 1,2 dioleoyl-sn-glycerol in a total assay volume of 200 μl in plastic tubes. The reaction was started by adding ^14C oleoyl coenzyme A (30 μM final concentration) and incubated at room temperature for 30 minutes. The reaction was stopped by adding 1.5 mL 2-propanol:heptane:water (80:20:2). Radioactive triolein product was separated into the organic phase by adding 1 mL heptane and 0.5 mL 0.1 M carbonate buffer pH 9.5. DGAT1 activity was quantified by counting aliquots of the upper heptane layer by liquid scintillography.

Turning to `O=C(Nc1ccc(S(=O)(=O)C2CCC(C(=O)O)CC2)cc1)c1nnc(Nc2cc(F)c(F)c(F)c2)o1` (mixture of isomers) [Example 1, 4-[4-[[5-[(3,4,5-Trifluorophenyl)amino]1,3,4-oxadiazole-2-carbonyl]amino]phenyl]sulfonylcyclohexane-1-carboxylic acid], the IC50 came out at 290 nM.

What is called IC50 is the point on the concentration scale where inhibition reaches its midpoint. Low values mean higher potency, high ones lower potency.
